Here are results for three compounds from patent US7838527B2, “Methods of treating cancer and related methods” (Novartis Vaccines and Diagnostics, Inc., priority 2002, dated 2010).

Series [1] is described as follows: Plasma pharmacokinetics in KM12L4a tumor-bearing mice. Type of series: in vivo. Particulars: 300 mg/kg/day p.o.; Day 18; from 3 concentration-time pairs.
A short description of series [2]: Compound 1 and metabolite levels in pooled rat plasma, 2 week toxicology study. Type of series: in vivo. Particulars: metabolites estimated by UV; for concentration at 0 h / concentration at 24 h: rat, plasma, po, read-out: Level in Rat Plasma.
A short description of series [3]: Metabolite profile in monkey plasma, multiple oral dose study. Type of series: in vivo. Particulars: for level in plasma: compound 1 5 mg/kg BID oral (10 mg/kg/day), Day 1, metabolite estimated by UV.
Where [4] appears, read: 30 mg/kg, compound 1 30 mg/kg PO once a day, Day 1.
The mark [5] stands for this setting: 100 mg/kg, compound 1 100 mg/kg PO once a day, Day 1.
Setting [6] is: 100 mg/kg, compound 1 100 mg/kg PO once a day, Day 14.

Where two headings read alike, the source gives them in different places.

In series [1], `CN1CCN(c2ccc3nc(-c4c(N)c5c(F)cccc5[nH]c4=O)[nH]c3c2)CC1` [Compound 1] returned an exposure (AUC) of 58400 ng·h/mL. In addition, the “% TGI vs. vehicle” value in the series on PC3 human prostate tumor (100 mpk q 2 days) worked out at 75%; in the series on PC3 human prostate tumor (100 mpk q 3 days) it was 68%; with PC3 human prostate tumor (100 mpk q 4 days), 66%.
As to `C[N+]1([O-])CCN(c2ccc3nc(-c4c(N)c5c(F)cccc5[nH]c4=O)[nH]c3c2)CC1` [Compound 2, 4-amino-5-fluoro-3-[6-(4-methyl-4-oxidopiperazin-1-yl)-1H-benzimidazol-2-yl]quinolin-2(1H)-one], the results for the concentration at 0 h in series [2] (setting [4]), in series [2] (setting [5]) and in series [2] (setting [6]) were 0 ng/mL, 0 ng/mL and 67 ng/mL, respectively. Also, the values for the concentration at 24 h in series [2] (setting [5]) and in series [2] (setting [6]) were 137 ng/mL and 102 ng/mL, respectively. Besides, the “detection of metabolite in plasma” value in series [3] (monkey, compound 1 5 mg/kg BID oral, day 1 and 14 samples) is “not detected”.
As for `Nc1c(-c2nc3ccc(N4CCNCC4)cc3[nH]2)c(=O)[nH]c2cccc(F)c12` [Compound 3, 4-amino-5-fluoro-3-[6-(piperazin-1-yl)-1H-benzimidazol-2-yl]quinolin-2(1H)-one], the “Level in Rat Plasma” value is 14 ng/mL in series [2] (compound 1 30 mg/kg PO once a day, Day 1, 1-2 hr); 48 ng/mL in series [2] (compound 1 30 mg/kg PO once a day, Day 1, 4-8 hr); 17 ng/mL in series [2] (compound 1 100 mg/kg PO once a day, Day 14, 1-2 hr); 19 ng/mL in series [2] (compound 1 100 mg/kg PO once a day, Day 14, 4-8 hr). For the same compound, the concentration at 0 h was 0 ng/mL in series [2] (setting [4]), 0 ng/mL in series [2] (setting [5]) and 15 ng/mL in series [2] (setting [6]). In addition, the results for the concentration at 24 h in series [2] (setting [5]) and in series [2] (setting [6]) were 83 ng/mL and 10 ng/mL, respectively. For the same compound, the level in plasma in series [3] (pooled 0 hr) was 0 ng/mL; in series [3] (pooled 1, 2 hr) it was 8.5 ng/mL; in series [3] (pooled 4, 8 hr), 31 ng/mL; in series [3] (pooled 12, 13, 14, 16, 20, 24 hr), 10 ng/mL.
